Results from US20250136722A1, “CYTOTOXICITY TARGETING CHIMERAS” (GLAXOSMITHKLINE INTELLECTUAL PROPERTY DEVELOPMENT LIMITED, priority 2021, published 2025).
Several values for one entry are separate records, joined by “and”; a condition that tells them apart may be missing. Equal values may be shown once. Where a name gives a salt, the structure may show the parent alone.

Target: T1, CHOK1 cells engineered to overexpress human CCR2 (Homo sapiens, UniProt P41597)
T1 construct: expressed in transfected cells; host or cells: CHOK1 cells
Test: Antibody dependent cellular cytotoxicity (ADCC) reporter assay (Example 199)
Type: cell-based
Settings: with anti-cotinine antibody SEQ ID NO: 11/12; CHOK1-human CCR2 target cells, Jurkat FcγRIIIa NFAT-luciferase reporter cells; 12-18 hours; read-out: ADCC Reporter Assay pEC50 (converted)
Summary of the method: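 Potency is reported as pEC50 from a nonlinear fit, averaged over runs, using luciferase signal divided by that of compound-free wells. The readout comes from NFAT-luciferase Jurkat cells expressing FcγRIIIa, mixed for 12–18 h with human CCR2-overexpressing CHOK1 cells, 1 pM–10 μM ARM compound and 0.01–200 μg/mL Fc-enhanced anti-cotinine IgG1.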

Row | SMILES | EC50
1 | CC(C)N(C)[C@@H]1CC[C@H](N2CC[C@H](Nc3ncnc4ccc(C(F)(F)F)cc34)C2=O)[C@H](NC(=O)CCCCCCCCC(=O)NCCCCCCCCCCNC(=O)[C@H]2CC(=O)N(C)[C@@H]2c2cccnc2)C1 [Example 165, N^1-((1R,2S,5R)-5-(isopropyl(methyl)amino)-2-((S)-2-oxo-3-((6-(trifluoromethyl)quinazolin-4-yl)amino)pyrrolidin-1-yl)cyclohexyl)-N^10-(10-((2S,3S)-1-methyl-5-oxo-2-(pyridin-3-yl)pyrrolidine-3-carboxamido)decyl)decanediamide] | 1.26 nM
2 | CC(C)N(C)[C@@H]1CC[C@H](N2CC[C@H](Nc3ncnc4ccc(C(F)(F)F)cc34)C2=O)[C@H](NC(=O)CCOCCC(=O)N2CCC3(CCC(C(=O)NCCNC(=O)[C@H]4CC(=O)N(C)[C@@H]4c4cccnc4)CC3)CC2)C1 [Example 167, 3-(3-(3-(((1R,2S,5R)-5-(Isopropyl(methyl)amino)-2-((S)-2-oxo-3-((6-(trifluoromethyl)quinazolin-4-yl)amino)pyrrolidin-1-yl)cyclohexyl)amino)-3-oxopropoxy)propanoyl)-N-(2-((2S,3S)-1-methyl-5-oxo-2-(pyridin-3-yl)pyrrolidine-3-carboxamido)ethyl)-3-azaspiro[5.5]undecane-9-carboxamide] | 1.26 nM
3 | CC(C)N(C)[C@@H]1CC[C@H](N2CC[C@H](Nc3ncnc4ccc(C(F)(F)F)cc34)C2=O)[C@H](NC(=O)[C@H]2CC[C@@H](NC(=O)C3CCC4(CC3)CCN(CCNC(=O)[C@H]3CC(=O)N(C)[C@@H]3c3cccnc3)CC4)CC2)C1 [Example 170, N-((1S,4s)-4-(((1R,2S,5R)-5-(Isopropyl(methyl)amino)-2-((S)-2-oxo-3-((6-(trifluoromethyl)quinazolin-4-yl)amino)pyrrolidin-1-yl)cyclohexyl)carbamoyl)cyclohexyl)-3-(2-((2S,3S)-1-methyl-5-oxo-2-(pyridin-3-yl)pyrrolidine-3-carboxamido)ethyl)-3-azaspiro[5.5]undecane-9-carboxamide] | 1 nM
4 | CC(C)N(C)[C@@H]1CC[C@H](N2CC[C@H](Nc3ncnc4ccc(C(F)(F)F)cc34)C2=O)[C@H](NC(=O)C2CCN(C3CCN(C(=O)CCOCCOCCNC(=O)[C@H]4CC(=O)N(C)[C@@H]4c4cccnc4)CC3)CC2)C1 [Example 172, N-((1R,2S,5R)-5-(Isopropyl(methyl)amino)-2-((S)-2-oxo-3-((6-(trifluoromethyl)quinazolin-4-yl)amino)pyrrolidin-1-yl)cyclohexyl)-1′-(3-(2-(2-((2S,3S)-1-methyl-5-oxo-2-(pyridin-3-yl)pyrrolidine-3-carboxamido)ethoxy)ethoxy)propanoyl)-[1,4′-bipiperidine]-4-carboxamide] | 0.794 nM
5 | CC(C)N(C)[C@@H]1CC[C@H](N2CC[C@H](Nc3ncnc4ccc(C(F)(F)F)cc34)C2=O)[C@H](NC(=O)[C@H]2CC[C@@H](NC(=O)CCOCCOCCNC(=O)CCCNC(=O)[C@H]3CC(=O)N(C)[C@@H]3c3cccnc3)CC2)C1 [Example 176, (2S,3S)-N-(4-((2-(2-(3-(((1S,4s)-4-(((1R,2S,5R)-5-(Isopropyl(methyl)amino)-2-((S)-2-oxo-3-((6-(trifluoromethyl)quinazolin-4-yl)amino)pyrrolidin-1-yl)cyclohexyl)carbamoyl)cyclohexyl)amino)-3-oxopropoxy)ethoxy)ethyl)amino)-4-oxobutyl)-1-methyl-5-oxo-2-(pyridin-3-yl)pyrrolidine-3-carboxamide] | 0.794 nM and 0.398 nM
6 | CC(C)N(CCOCCOCCC(=O)N[C@H]1CC[C@@H](C(=O)N[C@@H]2C[C@H](N(C)C(C)C)CC[C@@H]2N2CC[C@H](Nc3ncnc4ccc(C(F)(F)F)cc34)C2=O)CC1)C(=O)CCCNC(=O)[C@H]1CC(=O)N(C)[C@@H]1c1cccnc1 [Example 177] | 0.501 nM and 0.316 nM
7 | CC(C)N(C)[C@@H]1CC[C@H](N2CC[C@H](Nc3ncnc4ccc(C(F)(F)F)cc34)C2=O)[C@H](NC(=O)CCCN2CCC3(CCC(C(=O)NCCNC(=O)[C@H]4CC(=O)N(C)[C@@H]4c4cccnc4)CC3)CC2)C1 [Example 183, 3-(4-(((1R,2S,5R)-5-(Isopropyl(methyl)amino)-2-((S)-2-oxo-3-((6-(trifluoromethyl)quinazolin-4-yl)amino)pyrrolidin-1-yl)cyclohexyl)amino)-4-oxobutyl)-N-(2-((2S,3S)-1-methyl-5-oxo-2-(pyridin-3-yl)pyrrolidine-3-carboxamido)ethyl)-3-azaspiro[5.5]undecane-9-carboxamide, 3 Formic acid salt] | 0.501 nM
8 | CC(C)N(C)[C@@H]1CC[C@H](N2CC[C@H](Nc3ncnc4ccc(C(F)(F)F)cc34)C2=O)[C@H](NC(=O)C2CCN(C3CCN(C4CCN(CCCCNC(=O)[C@H]5CC(=O)N(C)[C@@H]5c5cccnc5)CC4)CC3)CC2)C1 [Example 185, N-((1R,2S,5R)-5-(isopropyl(methyl)amino)-2-((S)-2-oxo-3-((6-(trifluoromethyl)quinazolin-4-yl)amino)pyrrolidin-1-yl)cyclohexyl)-1″-(4-((2S,3S)-1-methyl-5-oxo-2-(pyridin-3-yl)pyrrolidine-3-carboxamido)butyl)-[1,4′:1′,4″-terpiperidine]-4-carboxamide] | 0.501 nM
9 | CC(C)N(C)[C@@H]1CC[C@H](N2CC[C@H](Nc3ncnc4ccc(C(F)(F)F)cc34)C2=O)[C@H](NC(=O)[C@H]2CC[C@H](C3CCN(CCOCCOCCNC(=O)[C@H]4CC(=O)N(C)[C@@H]4c4cccnc4)CC3)CC2)C1 [Example 189, (2S,3S)-N-(2-(2-(2-(4-((1R,4r)-4-(((1R,2S,5R)-5-(Isopropyl(methyl)amino)-2-((S)-2-oxo-3-((6-(trifluoromethyl)quinazolin-4-yl)amino)pyrrolidin-1-yl)cyclohexyl)carbamoyl)cyclohexyl)piperidin-1-yl)ethoxy)ethoxy)ethyl)-1-methyl-5-oxo-2-(pyridin-3-yl)pyrrolidine-3-carboxamide] | 6.31 nM
10 | CC(C)N(C)[C@@H]1CC[C@H](N2CC[C@H](Nc3ncnc4ccc(C(F)(F)F)cc34)C2=O)[C@H](NC(=O)[C@H]2CC[C@@H](NC(=O)CCCOCCCOCCCNC(=O)[C@H]3CC(=O)N(C)[C@@H]3c3cccnc3)CC2)C1 [Example 193, (2S,3S)-N-(3-(3-(4-(((1S,4s)-4-(((1R,2S,5R)-5-(Isopropyl(methyl)amino)-2-((S)-2-oxo-3-((6-(trifluoromethyl)quinazolin-4-yl)amino)pyrrolidin-1-yl)cyclohexyl)carbamoyl)cyclohexyl)amino)-4-oxobutoxy)propoxy)propyl)-1-methyl-5-oxo-2-(pyridin-3-yl)pyrrolidine-3-carboxamide] | 0.398 nM and 0.126 nM
11 | CC(C)N(C)[C@@H]1CC[C@H](N2CC[C@H](Nc3ncnc4ccc(C(F)(F)F)cc34)C2=O)[C@H](NC(=O)CCCCCCCCNCCOCCOCCOCCOCCNC(=O)[C@H]2CC(=O)N(C)[C@@H]2c2cccnc2)C1 [Example 195, (2S,3S)-N-(24-(((1R,2S,5R)-5-(Isopropyl(methyl)amino)-2-((S)-2-oxo-3-((6-(trifluoromethyl)quinazolin-4-yl)amino)pyrrolidin-1-yl)cyclohexyl)amino)-24-oxo-3,6,9,12-tetraoxa-15-azatetracosyl)-1-methyl-5-oxo-2-(pyridin-3-yl)pyrrolidine-3-carboxamide, 3Trifluoroacetic acid salt] | 0.158 nM
12 | CC(C)N(C)[C@@H]1CC[C@H](N2CC[C@H](Nc3ncnc4ccc(C(F)(F)F)cc34)C2=O)[C@H](NC(=O)[C@H]2CC[C@@H](NC(=O)CCOCCCOCCCNC(=O)[C@H]3CC(=O)N(C)[C@@H]3c3cccnc3)CC2)C1 [Example 197, (2S,3S)-N-(3-(3-(3-(((1S,4s)-4-(((1R,2S,5R)-5-(Isopropyl(methyl)amino)-2-((S)-2-oxo-3-((6-(trifluoromethyl)quinazolin-4-yl)amino)pyrrolidin-1-yl)cyclohexyl)carbamoyl)cyclohexyl)amino)-3-oxopropoxy)propoxy)propyl)-1-methyl-5-oxo-2-(pyridin-3-yl)pyrrolidine-3-carboxamide] | 0.251 nM
13 | CC(C)N(C)[C@@H]1CC[C@H](N2CC[C@H](Nc3ncnc4ccc(C(F)(F)F)cc34)C2=O)[C@H](NC(=O)[C@H]2CC[C@H](N3CCN(CCOCCOCCNC(=O)[C@H]4CC(=O)N(C)[C@@H]4c4cccnc4)CC3)CC2)C1 [compound 190] | 2.51 nM
14 | CC(C)N(C)[C@@H]1CC[C@H](N2CC[C@H](Nc3ncnc4ccc(C(F)(F)F)cc34)C2=O)[C@H](NC(=O)CCCCCCCCNCCCCCCCCCCNC(=O)[C@H]2CC(=O)N(C)[C@@H]2c2cccnc2)C1 [compound 196] | 0.251 nM
